Values after ≈ are worked out from the molar mass of the structure shown. Active and inactive are the calls of the source. No cut-off for these calls is given here.
Experiments:
Staphylococcus aureus [1] = experiment: Antibacterial activity against Staphylococcus aureus CGMCC1.8721 assessed as reduction in bacterial growth in presence of lipoteichoic acid; format: functional, organism-based
HepG2 = experiment: Cytotoxicity against human HepG2 cells assessed as cell viability upto 40 uM relative to control; format: functional; conditions: up to 40 µM
Staphylococcus aureus [2] = experiment: Antibacterial activity against methicillin-resistant Staphylococcus aureus ATCC 43300 assessed as reduction in bacterial growth in presence of Ca2+; format: functional
Staphylococcus aureus [3] = experiment: Antibacterial activity against Staphylococcus aureus CGMCC1.8721 assessed as reduction in bacterial growth in presence of phosphatidylethanolamine; format: functional, organism-based
Staphylococcus aureus [4] = experiment: Antibacterial activity against Staphylococcus aureus CGMCC1.8721 assessed as reduction in bacterial growth in presence of peptidoglycan; format: functional, organism-based
Cell membrane [5] = experiment: Disruption of cell membrane integrity in Staphylococcus aureus CGMCC1.8721 assessed as appearance of uneven cell surface at 1 to 4 times MIC by scanning electron microscopic analysis; format: subcellular
Staphylococcus aureus [6] = experiment: Antibacterial activity against Staphylococcus aureus CGMCC1.8721 assessed as reduction in bacterial growth in presence of phosphatidylglycerol; format: functional
Staphylococcus aureus [7] = experiment: Antibacterial activity against methicillin-resistant Staphylococcus aureus ATCC 33591 assessed as reduction in bacterial growth in presence of Zn2+; format: functional
Staphylococcus aureus [8] = experiment: Antibacterial activity against methicillin-resistant Staphylococcus aureus ATCC 43300 assessed as reduction in bacterial growth in presence of Na+; format: functional
Staphylococcus aureus [9] = experiment: Antibacterial activity against methicillin-resistant Staphylococcus aureus ATCC 43300 assessed as reduction in bacterial growth in presence of K+; format: functional
Staphylococcus aureus [10] = experiment: Antibacterial activity against methicillin-resistant Staphylococcus aureus ATCC 33591 assessed as reduction in bacterial growth in presence of Fe3+; format: functional
A549 = experiment: Cytotoxicity against human A549 cells upto 20 uM; format: functional, cell-based
[11] = Hemolytic activity against rabbit Red blood cell assessed as hemolysis; format: toxicity, cell-based, Oryctolagus cuniculus, Erythrocyte; conditions: red blood cells
Staphylococcus aureus [12] = experiment: Antibacterial activity against methicillin-resistant Staphylococcus aureus CGMCC 1.12409 assessed as reduction in bacterial growth in presence of Na+; format: functional
[13] = Cytotoxicity against human HEK293T cells assessed as cell viability upto 40 uM relative to control; format: toxicity, cell-based, HEK-293T; conditions: read-out: Activity
Staphylococcus aureus [14] = experiment: Antibacterial activity against Staphylococcus aureus CGMCC1.8721 assessed as reduction in metabolic activity at 4 times MIC by Alamar Blue assay; format: functional; design: scale not given: the % may be the effect or the level left
Staphylococcus aureus [15] = experiment: Antibacterial activity against methicillin-resistant Staphylococcus aureus ATCC 43300 assessed as reduction in bacterial growth in presence of Zn2+; format: functional
Staphylococcus aureus [16] = experiment: Antibacterial activity against methicillin-resistant Staphylococcus aureus ATCC 33591 assessed as reduction in bacterial growth in presence of Mg2+; format: functional
Staphylococcus aureus [17] = experiment: Bactericidal activity against methicillin-resistant Staphylococcus aureus ATCC 33591 assessed as reduction in bacterial growth; format: functional
Cell membrane [18] = experiment: Disruption of cell membrane integrity in Staphylococcus aureus CGMCC1.8721 assessed as appearance of ruptured cell surface at 1 to 4 times MIC by scanning electron microscopic analysis; format: subcellular
Staphylococcus aureus [19] = experiment: Antibacterial activity against methicillin-resistant Staphylococcus aureus ATCC 43300 assessed as reduction in bacterial growth in presence of Mg2+; format: functional
Staphylococcus aureus [20] = experiment: Antibacterial activity against Staphylococcus aureus CGMCC1.8721 assessed as induction of ROS production at 1 to 4 times MIC by DCFH-DA staining based flow cytometry analysis; format: functional, organism-based
Staphylococcus aureus [21] = experiment: Antibacterial activity against methicillin-resistant Staphylococcus aureus ATCC 33591 assessed as reduction in bacterial growth; format: functional
Staphylococcus aureus [22] = experiment: Antibacterial activity against methicillin-resistant Staphylococcus aureus CGMCC 1.12409 assessed as reduction in bacterial growth in presence of Fe2+; format: functional
Staphylococcus aureus [23] = experiment: Antibacterial activity against Staphylococcus aureus CGMCC1.8721 assessed as reduction in bacterial growth in presence of Na+; format: functional
Staphylococcus aureus [24] = experiment: Antibacterial activity against methicillin-resistant Staphylococcus aureus CGMCC 1.12409 assessed as reduction in bacterial growth; format: functional
Staphylococcus aureus [25] = experiment: Antibiofilm activity against Staphylococcus aureus CGMCC1.8721 assessed as inhibition of biofilm formation; format: functional, organism-based
Staphylococcus aureus [26] = experiment: Antibacterial activity against methicillin-resistant Staphylococcus aureus CGMCC 1.12409 assessed as reduction in bacterial growth in presence of Mg2+; format: functional
Staphylococcus aureus [27] = experiment: Antibacterial activity against Staphylococcus aureus CGMCC1.8721 assessed as reduction in bacterial growth in presence of Ca2+; format: functional
Staphylococcus aureus [28] = experiment: Antibacterial activity against methicillin-resistant Staphylococcus aureus CGMCC 1.12409 assessed as reduction in bacterial growth in presence of K+; format: functional
Staphylococcus aureus [29] = experiment: Antibiofilm activity against Staphylococcus aureus CGMCC1.8721 assessed as inhibition of biofilm formation at 1 times MIC; format: functional
Staphylococcus aureus [30] = experiment: Antibacterial activity against Staphylococcus aureus CGMCC1.8721 assessed as reduction in bacterial growth in presence of K+; format: functional
Staphylococcus aureus [31] = experiment: Antibacterial activity against Methicillin-resistant Staphylococcus aureus CGMCC1.8721 infected in mouse skin infection model assessed as reduction in bacterial load at 10 mg/kg, sc; format: functional; design: scale not given: the % may be the effect or the level left
Staphylococcus aureus [32] = experiment: Antibiofilm activity against Staphylococcus aureus CGMCC1.8721 assessed as biofilm eradication; format: functional, organism-based
Cell membrane [33] = experiment: Induction of membrane depolarization in Staphylococcus aureus CGMCC1.8721 assessed as increase in fluorescence intensity measured upto 30 mins by DiSC35 dye-based fluorescence assay; format: subcellular; conditions: dose 2-8 µg/ml
Staphylococcus aureus [34] = experiment: Antibacterial activity against Staphylococcus aureus CGMCC1.8721 assessed as reduction in bacterial growth in presence of Zn2+; format: functional
Staphylococcus aureus [35] = experiment: Antibacterial activity against Staphylococcus aureus CGMCC1.8721 assessed as reduction in bacterial growth in presence of Fe2+; format: functional
Staphylococcus aureus [36] = experiment: Antibacterial activity against methicillin-resistant Staphylococcus aureus ATCC 43300 assessed as reduction in bacterial growth in presence of Fe3+; format: functional
Staphylococcus aureus [37] = experiment: Bactericidal activity against methicillin-resistant Staphylococcus aureus CGMCC 1.12409 assessed as reduction in bacterial growth; format: functional
Staphylococcus aureus [38] = experiment: Bactericidal activity against Staphylococcus aureus CGMCC1.8721 assessed as reduction in bacterial growth; format: functional
Staphylococcus aureus [39] = experiment: Antibacterial activity against Staphylococcus aureus CGMCC1.8721 assessed as reduction in bacterial growth at 4 to 8 times MIC measured at 0.5 hrs by time kill assay; format: functional; design: scale not given: the % may be the effect or the level left
Staphylococcus aureus [40] = experiment: Antibacterial activity against methicillin-resistant Staphylococcus aureus ATCC 33591 assessed as reduction in bacterial growth in presence of K+; format: functional
Staphylococcus aureus [41] = experiment: Antibacterial activity against Staphylococcus aureus CGMCC1.8721 assessed as reduction in bacterial growth; format: functional
Staphylococcus aureus [42] = experiment: Antibacterial activity against Methicillin-resistant Staphylococcus aureus CGMCC1.8721 infected in mouse skin infection model assessed as reduction in bacterial clones at 5 to 10 mg/kg, sc; format: functional, organism-based; conditions: dose 5-10 mg/kg
Staphylococcus aureus [43] = experiment: Antibacterial activity against methicillin-resistant Staphylococcus aureus CGMCC 1.12409 assessed as reduction in bacterial growth in presence of Zn2+; format: functional

With `CCNCc1ccc2[nH]cc(C[C@@H](C)[C@H]3CC[C@H]4[C@@H]5CC[C@@H]6C[C@H](O)CC[C@]6(C)[C@H]5CC[C@]34C)c2c1` the Activity (Staphylococcus aureus [1]) was “inactive”, the Activity (HepG2) was >70% and the MIC (Staphylococcus aureus [2]) was 1 µg/mL. The Activity (Staphylococcus aureus [3]) was “inactive”, the Activity (Staphylococcus aureus [4]) was “inactive” and the Activity (Cell membrane [5]) was “Active”. It also gave an MIC (Staphylococcus aureus [6]) of 32 µg/mL, an MIC (Staphylococcus aureus [7]) of 2 µg/mL and an MIC (Staphylococcus aureus [8]) of 1 µg/mL. The MIC (Staphylococcus aureus [9]) was 1 µg/mL, the MIC (Staphylococcus aureus [10]) was 2 µg/mL and the Activity (A549) was “Active”. For the same molecule, the HC50 [11] was > 128 µg/mL, the MIC (Staphylococcus aureus [12]) was 2 µg/mL and the viability at up to 40 µM [13] was > 70%. It also gave an Activity (Staphylococcus aureus [14]) of 75%, an MIC (Staphylococcus aureus [15]) of 1 µg/mL and an MIC (Staphylococcus aureus [16]) of 2 µg/mL. For the same molecule, the MBC (Staphylococcus aureus [17]) was 4 µg/mL (≈ 8.15 µM), the Activity (Cell membrane [18]) was “Active” and the MIC (Staphylococcus aureus [19]) was 1 µg/mL. The Activity (Staphylococcus aureus [20]) was “Active”, the MIC (Staphylococcus aureus [21]) was 2 µg/mL (≈ 4.08 µM) and the MIC (Staphylococcus aureus [22]) was 2 µg/mL. For the same molecule, the MIC (Staphylococcus aureus [23]) was 1 µg/mL, the MIC (Staphylococcus aureus [24]) was 2 µg/mL (≈ 4.08 µM) and the Activity (Staphylococcus aureus [25]) was “Dose-dependent-effect”. The MIC (Staphylococcus aureus [26]) was 2 µg/mL, the MIC (Staphylococcus aureus [27]) was 1 µg/mL and the MIC (Staphylococcus aureus [28]) was 2 µg/mL. The “inhibition (INH)” value (Staphylococcus aureus [29]) was 64.1%, the MIC (Staphylococcus aureus [30]) was 1 µg/mL and the Activity (Staphylococcus aureus [31]) was 76%. The Activity (Staphylococcus aureus [32]) was “Active”, the Activity (Cell membrane [33]) was “Dose-dependent-effect” and the MIC (Staphylococcus aureus [34]) was 1 µg/mL. For the same molecule, the MIC (Staphylococcus aureus [35]) was 1 µg/mL, the MIC (Staphylococcus aureus [36]) was 1 µg/mL and the MBC (Staphylococcus aureus [37]) was 4 µg/mL (≈ 8.15 µM). For the same molecule, the MBC (Staphylococcus aureus [38]) was 2 µg/mL (≈ 4.08 µM), the Activity (Staphylococcus aureus [39]) was 100% and the MIC (Staphylococcus aureus [40]) was 2 µg/mL. The MIC (Staphylococcus aureus [41]) was 1 µg/mL (≈ 2.04 µM), the AC30 (Staphylococcus aureus [42]) was “Active” and the MIC (Staphylococcus aureus [43]) was 2 µg/mL.

— ChEMBL document CHEMBL6078711, “Design, synthesis, and biological evaluation of steroidal indole derivatives as membrane-targeting antibacterial candidates” (Eur J Med Chem, 2025)
